One assay deals with T1, CLK2 (Homo sapiens, UniProt P49760).
T1 construct: purchased Thermo Fisher (Life Technologies), Z'-LYTE Kinase Assay Kits
As to the kind of experiment: CLK2 kinase activity assay (Z-lyte, Ser/Thr 6 peptide). Format: biochemical. The procedure: All reactions were performed in duplicate.

Assay [1] has as its system Wnt-responsive Sp5-Luc reporter in SW480 colon carcinoma cells. Briefly: Wnt activity screening assay (Sp5-Luc reporter). Format: cell-based. The following applies: Homo sapiens. The source says: The screening assay for Wnt activity is described as follows. Reporter cell lines can be generated by stably transducing cancer cell lines (e.g., colon cancer) or primary cells (e.g., IEC-6 intestinal cells) with a lentiviral construct that includes a Wnt-responsive promoter driving expression of the firefly luciferase gene.
SW480 colon carcinoma cells were transduced with a lentiviral vector expressing luciferase with a human Sp5 promoter consisting of a sequence of eight TCF/LEF binding sites. […] These stably transduced SW480 cells were expanded in cell culture and used for all further screening activities. […] For Sp5-Luc reporter gene assays, the cells were plated at 4,000 cells/well in 384-well plates with a DMEM medium containing 1% fetal bovine serum, and 1% Penicillin-Streptomycin and incubated for 36 to 48 hours at 37° C. and 5% CO2. Following incubation, 15 μL of BriteLite Plus luminescence reagent (Perkin Elmer) was added to each well of the 384-well assay plates. The plates were placed on an orbital shaker for 2 min and then luminescence was quantified using the Envision (Perkin Elmer) plate reader.

The subject of assay [2] is SW480 colorectal cancer cells. As to the kind of experiment: Gene expression qRT-PCR in SW480 cells. Format: cell-based. The following applies: Homo sapiens, SW480, 3 μM, 24 hours, relative to DMSO. The procedure:
SW480 colorectal cancer cells were plated at 1×10^4 cells per well into 96-well plates (Olympus). Compounds were diluted in cell culture media and added to the cells at a final concentration of 3 μM. Cells were treated with vehicle (DMSO) and compounds for 24 hours. N=3 biological replicates per conditions.
Following treatment, cells were lysed, and cDNA was generated using the Fastlane Cell cDNA Kit (Qiagen).
384-well PCR plates with pre-spotted primers for CLK1, CLK2, CLK3, DVL2, LRP5, SRSF1, SRSF3, SRSF4, SRSF5, TCF7, TCF7L2 were ordered from Bio-Rad. The generated cDNA, along with a SYBR Green qRT-PCR master mix (SsoAdvanced™ Universal SYBR® Green Supermix, Bio-Rad) was added to the PCR plates.
qRT-PCR was performed on the plates using a CFX384 Touch™ Real-Time PCR Detection System (Bio-Rad) with the manufacturer's recommended thermal cycling conditions.
Data from the qRT-PCR assay was normalized to the GAPDH and HPRT1 housekeeping genes and set gene expression fold change was set relative to vehicle-treated cells using the ΔΔCt analysis method.

Another assay has as its target CLK3 (Homo sapiens, UniProt P49761). Briefly: CLK3 kinase activity assay (Z-lyte, Ser/Thr 18 peptide).
Setting [3] is: recombinant CLK2 kinase, ATP 60 μM, read-out: EC50.
Where [4] appears, read: SW480 Sp5-Luc reporter, 36 to 48 hours, read-out: EC50.
The mark [5] stands for this setting: read-out: gene expression fold change CLK1.
[6] abbreviates: read-out: gene expression fold change CLK2.
The mark [7] stands for this setting: read-out: gene expression fold change CLK3.
Setting [8] is: read-out: gene expression fold change DVL2.
The mark [9] stands for this setting: read-out: gene expression fold change LRP5.
[10] abbreviates: read-out: gene expression fold change SRSF1.
Where [11] appears, read: read-out: gene expression fold change SRSF3.
Setting [12] is: read-out: gene expression fold change SRSF4.
Where [13] appears, read: read-out: gene expression fold change SRSF5.
Where [14] appears, read: read-out: gene expression fold change TCF7.
The mark [15] stands for this setting: read-out: gene expression fold change TCF7L2.

Where two headings read alike, the source gives them in different places.

T1 sequence (P49760 whole entry): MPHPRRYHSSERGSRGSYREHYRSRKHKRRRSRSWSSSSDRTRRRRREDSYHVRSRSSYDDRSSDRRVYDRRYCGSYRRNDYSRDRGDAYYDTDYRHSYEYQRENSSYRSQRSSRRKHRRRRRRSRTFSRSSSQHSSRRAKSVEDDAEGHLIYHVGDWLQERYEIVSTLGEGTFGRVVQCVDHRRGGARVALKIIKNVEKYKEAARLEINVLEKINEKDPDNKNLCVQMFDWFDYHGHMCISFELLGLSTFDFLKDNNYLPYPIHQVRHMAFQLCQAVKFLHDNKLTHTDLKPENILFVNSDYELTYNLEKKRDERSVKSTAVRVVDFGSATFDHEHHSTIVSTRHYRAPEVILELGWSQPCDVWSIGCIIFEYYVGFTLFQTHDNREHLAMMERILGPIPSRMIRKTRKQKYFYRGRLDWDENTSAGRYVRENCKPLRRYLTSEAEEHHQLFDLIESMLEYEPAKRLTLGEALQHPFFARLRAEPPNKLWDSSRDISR
Chain of CLK3 (P49761 whole entry): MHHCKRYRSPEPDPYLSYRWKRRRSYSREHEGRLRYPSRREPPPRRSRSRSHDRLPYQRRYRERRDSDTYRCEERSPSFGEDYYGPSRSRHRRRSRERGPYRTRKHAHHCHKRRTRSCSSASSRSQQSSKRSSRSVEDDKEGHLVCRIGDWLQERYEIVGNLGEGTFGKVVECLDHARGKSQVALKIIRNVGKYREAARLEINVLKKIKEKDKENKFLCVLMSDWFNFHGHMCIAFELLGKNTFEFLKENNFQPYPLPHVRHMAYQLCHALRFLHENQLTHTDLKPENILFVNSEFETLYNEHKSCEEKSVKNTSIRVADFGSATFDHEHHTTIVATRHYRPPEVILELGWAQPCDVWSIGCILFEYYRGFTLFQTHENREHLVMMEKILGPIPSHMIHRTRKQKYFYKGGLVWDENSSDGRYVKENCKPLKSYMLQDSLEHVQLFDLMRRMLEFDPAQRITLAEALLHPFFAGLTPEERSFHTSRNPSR
Description for CLK3: Each compound was dissolved in DMSO as a 10 mM stock and used to prepare compound source plates.
This is a non-radioactive assay using fluorescence resonance energy transfer (FRET) between coumarin and fluorescein to detect kinase activity which is represented as a ratio of coumarin emission/fluorescein emission.
All reactions were performed in duplicate. Unphosphorylated (“0% Control”) and phosphorylated (“100% control”) forms of Ser/Thr 18 served as control reactions. Additionally, an 11-point dose-response curve of Staurosporine (1 uM top) was run to serve as a positive compound control.
After incubation, Development Reagent A was diluted in Development Buffer then added to the reaction and allowed to further incubate for one hour at room temperature.
Dose-response curves were generated and inhibitory concentration (IC50) values were calculated using non-linear regression curve fit in the Dotmatics' Studies Software (Bishops Stortford, UK).
Compounds were acoustically transferred on 1536-well plates (Echo 550, LabCyte) instrument. Kinase, peptide, and ATP reagents from the Z′-LYTE Kinase Assay Kits (Thermo Fisher) were dispensed onto the compound plates using an EL406 liquid dispenser (BioTek). Plates were incubated in the dark at room temperature for 1 hr. Development reagent was added to the plates and then incubated in the dark at room temperature for 1 hr. Fluorescence signal form the plate was then read using an EnVision Multilabel Plate Reader (Perkin Elmer).

`CN1CCC(C(=O)Nc2c[nH]nc2-c2nc3c(-c4cccc(F)c4)cccc3[nH]2)CC1` [Compound 1]: the EC50 was found to be 1 nM on CLK2 (setting [3]), 39 nM in assay [1] (setting [4]) and 10 nM on CLK3. Also, the fold induction at 3 µM in assay [2] (setting [5]) is 0.02; in assay [2] (setting [6]), 0.02; in assay [2] (setting [7]), 0.01; in assay [2] (setting [8]), 0.14; in assay [2] (setting [9]), 0.18; in assay [2] (setting [10]), 0.32. Moreover, the fold induction at 3 µM was determined as 0.13 in assay [2] (setting [11]); 0.03 in assay [2] (setting [12]); 0.39 in assay [2] (setting [13]); 0.44 in assay [2] (setting [14]); 0.24 in assay [2] (setting [15]).

For the compound `Cc1n[nH]c2ncc(-c3cncc(OC[C@@H](N)Cc4ccccc4)n3)cc12` [Compound 4], the EC50 at CLK2 (setting [3]) came out at 2 nM; in assay [1] (setting [4]), 525 nM; at CLK3, 1280 nM. The fold induction at 3 µM was determined as 0.43 in assay [2] (setting [5]); 0.35 in assay [2] (setting [6]); 0.74 in assay [2] (setting [7]); 0.11 in assay [2] (setting [8]); 0.06 in assay [2] (setting [9]); 0.25 in assay [2] (setting [10]). Besides, the fold induction at 3 µM in assay [2] (setting [11]) was determined as 0.05; in assay [2] (setting [12]), 0.7; in assay [2] (setting [13]) it was 0.27; in assay [2] (setting [14]), 0.21; in assay [2] (setting [15]), 0.13.

Take `Cc1ncc(NC(=O)c2n[nH]c3ccc(-c4cnn(C5CCNCC5)c4)cc23)s1` [Compound 5]: the EC50 turned out to be 0.3 nM on CLK2 (setting [3]), 257 nM in assay [1] (setting [4]) and 27 nM on CLK3. The fold induction at 3 µM was determined as 0.15 in assay [2] (setting [5]); 0.12 in assay [2] (setting [6]); 0.55 in assay [2] (setting [7]); 0.37 in assay [2] (setting [8]); 0.43 in assay [2] (setting [9]); 1.52 in assay [2] (setting [10]). For the same compound, the fold induction at 3 µM was determined as 0.46 in assay [2] (setting [11]); 0.27 in assay [2] (setting [12]); 0.6 in assay [2] (setting [13]); 0.3 in assay [2] (setting [14]); 0.24 in assay [2] (setting [15]).

Turning to `CC(C)N1CCC(n2cc(C(=O)Nc3cc4cc(-c5cnn(C)c5)ccc4cn3)cn2)CC1` [Compound 11], the EC50 on CLK2 (setting [3]) is 1 nM; in assay [1] (setting [4]) it was 13 nM; at CLK3, 5 nM. For the same compound, the fold induction at 3 µM amounted to 0.02 in assay [2] (setting [5]); 0.04 in assay [2] (setting [6]); 0.09 in assay [2] (setting [7]); 0.11 in assay [2] (setting [8]); 0.09 in assay [2] (setting [9]); 0.74 in assay [2] (setting [10]). For the same compound, the fold induction at 3 µM in assay [2] (setting [11]) turned out to be 0.17; in assay [2] (setting [12]) it was 0.15; in assay [2] (setting [13]) it was 0.24; in assay [2] (setting [14]) it was 0.19; in assay [2] (setting [15]), 0.17.

With `Nc1cncc(-c2ccc3cnc(NC(=O)c4ccc(OC5CCNCC5)cc4)cc3c2)c1` [Compound 20], the EC50 was 1 nM at CLK2 (setting [3]), 169 nM in assay [1] (setting [4]) and 19 nM at CLK3. The fold induction at 3 µM in assay [2] (setting [5]) worked out at 0.07; in assay [2] (setting [6]) it was 0.08; in assay [2] (setting [7]), 0.35; in assay [2] (setting [8]) it was 0.42; in assay [2] (setting [9]), 0.37; in assay [2] (setting [10]), 1.56. Moreover, the fold induction at 3 µM in assay [2] (setting [11]) stood at 0.5; in assay [2] (setting [12]) it was 0.33; in assay [2] (setting [13]) it was 0.63; in assay [2] (setting [14]), 0.47; in assay [2] (setting [15]), 0.6.

Consider `O=C(Nc1cc2cc(-c3cncc(NC4CCNC[C@@H]4F)n3)ccc2cn1)C1CC1` (stereo partly drawn) [Compound 22], for which the EC50 on CLK2 (setting [3]) was 2 nM; in assay [1] (setting [4]) it was 14 nM; at CLK3 it was 18 nM. In addition, the fold induction at 3 µM in assay [2] (setting [5]) is 0.04; in assay [2] (setting [6]) it was 0.04; in assay [2] (setting [7]), 0.04; in assay [2] (setting [8]), 0.41; in assay [2] (setting [9]), 0.21; in assay [2] (setting [10]), 0.53. Also, the fold induction at 3 µM was found to be 0.18 in assay [2] (setting [11]); 0.04 in assay [2] (setting [12]); 0.36 in assay [2] (setting [13]); 0.75 in assay [2] (setting [14]); 0.68 in assay [2] (setting [15]).

As for `Cc1ccc([N+](=O)[O-])cc1S(=O)(=O)N(C)/N=C/c1cnc2ccc(Br)cn12` [Compound 26], the EC50 was 1 nM at CLK2, 39 nM in assay [1] (SW480) and 15 nM on CLK3.

As for `Cc1n[nH]c2ccc(-c3cncc(OC4CCNCC4(F)F)n3)cc12` (stereo not drawn) [Compound 28], the concentration for a half-maximal effect (EC50) was 3 nM at CLK2 (setting [3]), 369 nM in assay [1] (setting [4]) and 313 nM on CLK3.

Take `Fc1cccc(-c2cncc3[nH]c(-c4n[nH]cc4/C=C/c4cccnc4)nc23)c1` [Compound 29]: the EC50 at CLK2 (setting [3]) is 5 nM; in assay [1] (setting [4]), 14 nM; at CLK3 it was 62 nM.

For the compound `CN1CCC(Oc2ccc(NC(=O)c3n[nH]c4ccc(-c5cncc(N)c5)cc34)cc2)CC1` [Compound 32], the EC50 was found to be 1 nM at CLK2 (setting [3]), 85 nM in assay [1] (setting [4]) and 13 nM on CLK3.

In the case of `CN(C)Cc1cncc(-c2ccc3[nH]nc(-c4nc5c(-c6cccc(F)c6)cncc5[nH]4)c3c2)c1` [Compound 38], the EC50 at CLK2 (setting [3]) came to 1 nM; in assay [1] (setting [4]), 13 nM; on CLK3, 7 nM.

As for `CC(C)CC(=O)Nc1cncc(-c2ccc3[nH]nc(-c4nc5c(-c6cc(F)cc(OCCN(C)C)c6)cncc5[nH]4)c3c2)c1` [Compound 39], the EC50 at CLK2 (setting [3]) turned out to be 4 nM; in assay [1] (setting [4]), 199 nM; at CLK3, 10 nM.

As to `CCC(=O)Nc1cncc(-c2ccc3[nH]nc(-c4nc5c(-c6cccnc6)cncc5[nH]4)c3c2)c1` [Compound 40], the EC50 on CLK2 (setting [3]) came out at 3 nM; in assay [1] (setting [4]), 13 nM; at CLK3, 14 nM.

As to `CN(C)Cc1cncc(-c2ccc3[nH]nc(-c4nc5c(-c6cc(F)cc(CNS(C)(=O)=O)c6)ccnc5[nH]4)c3c2F)c1` [Compound 41], the EC50 at CLK2 (setting [3]) was determined as 2 nM; in assay [1] (setting [4]), 773 nM; on CLK3, 18 nM.

For the compound `c1cncc(-c2ccc3[nH]nc(-c4nc5ccncc5[nH]4)c3c2)c1` [Compound 43], the EC50 was found to be 4 nM on CLK2 (setting [3]), 133 nM in assay [1] (setting [4]) and 40 nM on CLK3.

Consider `NC1CN(c2cncc(-c3cc4c(-c5nc6c(-c7cccc(F)c7)cccc6[nH]5)n[nH]c4cn3)n2)C1` [Compound 44], for which the EC50 at CLK2 (setting [3]) is 18 nM; in assay [1] (setting [4]), 79 nM; at CLK3 it was 108 nM.

(Values after patent US20220062240A1, “METHODS OF TREATING CANCER USING A CLK INHIBITOR” (BioSplice Therapeutics, Inc., priority 2018, published 2022).)
